{"source": "patent EP3854384A1", "about": "“PHARMACEUTICAL FORMULATION COMPRISING ABIRATERONE ACETATE” (Adamed Pharma S.A., priority 2020, dated 2021)", "origin": "cited, not measured here", "conditions": "low water solubility and low intestinal permeability", "data": [{"smiles": "CC(=O)O[C@H]1CC[C@@]2(C)C(=CC[C@@H]3[C@@H]2CC[C@]2(C)C(c4cccnc4)=CC[C@@H]32)C1", "note": "[Abiraterone acetate, (3β)-17-(3-pyridinyl)androsta-5,16-dien-3-yl acetate]", "values": [{"measurement": "Biopharmaceutical Classification System (BCS) class", "value": "class IV"}]}]}
